Measured values published in ChEMBL document CHEMBL1201862, “PubChem BioAssay data set” (2004).
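Values below derive from 48-hour exposures of cells grown in 96-well plates, with endpoints linearly interpolated between the two concentrations bracketing the appropriate inhibition level. GI50 marks 50% less growth.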 Activity calls are given as the source filed them. Rule as the data show it: active = GI50 up to about 1.1 µM and inactive = higher.

How the values were obtained:
Assay in all cases: growth of human tumour cells (NCI), 48 h
DMS-273 = tested on: DMS-273
LXFL 529 = tested on: LXFL 529
SNB-78 = tested on: SNB-78
RXF 631 = tested on: RXF 631
XF498 = tested on: XF498
DLD-1 = tested on: DLD-1
DMS-114 = tested on: DMS-114
M19-MEL = tested on: M19-MEL
HOP-18 = tested on: HOP-18

Structure (SMILES): N#Cc1cccc(N2C(=O)c3c(c(-c4ccccc4)c(-c4ccc(Sc5ccc(-c6c(-c7ccccc7)c7c(c(-c8ccccc8)c6-c6ccccc6)C(=O)N(c6cccc(C#N)c6)C7=O)cc5)cc4)c(-c4ccccc4)c3-c3ccccc3)C2=O)c1
- GI50 (DMS-273): > 100 µM (inactive)
- GI50 (LXFL 529): 37.7 µM (inactive)
- GI50 (SNB-78): 35.1 µM (inactive)
- GI50 (RXF 631): > 100 µM (inactive)
- GI50 (XF498): 30.5 µM (inactive)
- GI50 (DLD-1): > 100 µM (inactive)
- GI50 (DMS-114): 89.5 µM (inactive)

Structure (SMILES): C[S+]([O-])c1ccc(COP(N)(=O)N(CCCl)CCCl)cc1 (stereo unspecified)
- GI50 (DMS-273): > 100 µM (inactive)
- GI50 (LXFL 529): > 100 µM (inactive)
- GI50 (SNB-78): > 100 µM (inactive)
- GI50 (M19-MEL): > 100 µM (inactive)
- GI50 (XF498): > 100 µM (inactive)
- GI50 (DLD-1): > 100 µM (inactive)
- GI50 (DMS-114): > 100 µM (inactive)

Structure (SMILES): COC1C2C[C@@H](O)CCC2C(C(=O)OCCl)C[C@H]1O (stereo partly specified)
- GI50 (DMS-273): > 100 µM (inactive)
- GI50 (LXFL 529): > 100 µM (inactive)
- GI50 (SNB-78): > 100 µM (inactive)
- GI50 (RXF 631): > 100 µM (inactive)
- GI50 (M19-MEL): > 100 µM (inactive)
- GI50 (DLD-1): > 100 µM (inactive)
- GI50 (HOP-18): > 100 µM (inactive)
- GI50 (DMS-114): > 100 µM (inactive)

Structure (SMILES): CS/C(C)=N/OC(=O)NCCCCNc1ccc(N=[N+]=[N-])cc1
- GI50 (LXFL 529): 24.1 µM (inactive)
- GI50 (SNB-78): 82.6 µM (inactive)
- GI50 (RXF 631): 17.4 µM (inactive)
- GI50 (M19-MEL): 34.6 µM (inactive)
- GI50 (XF498): 13.8 µM (inactive)
- GI50 (DLD-1): > 100 µM (inactive)
- GI50 (HOP-18): > 100 µM (inactive)
- GI50 (DMS-114): 13.1 µM (inactive)

Structure (SMILES): COc1ccc(/C=C2\CCC(C)(CN(C)C)C2=O)cc1Br (stereo unspecified)
- GI50 (DMS-273): 18.2 µM (inactive)
- GI50 (LXFL 529): 17.9 µM (inactive)
- GI50 (SNB-78): 38.1 µM (inactive)
- GI50 (M19-MEL): 17.3 µM (inactive)
- GI50 (XF498): 18.8 µM (inactive)
- GI50 (DLD-1): 17.3 µM (inactive)
- GI50 (HOP-18): 28.8 µM (inactive)
- GI50 (DMS-114): 24.4 µM (inactive)

Structure (SMILES): CC1(C)CC(=O)C(C(=O)C(=O)NC2=C(Cl)C(=O)c3ccccc3C2=O)C(=O)C1
- GI50 (LXFL 529): 49.1 µM (inactive)
- GI50 (SNB-78): > 100 µM (inactive)
- GI50 (RXF 631): 82.4 µM (inactive)
- GI50 (M19-MEL): 61.5 µM (inactive)
- GI50 (XF498): > 100 µM (inactive)
- GI50 (DLD-1): > 100 µM (inactive)
- GI50 (HOP-18): > 100 µM (inactive)
- GI50 (DMS-114): 67.9 µM (inactive)

Structure (SMILES): COCC12CC(CC1=O)C1C2ON2c3ccccc3C(=O)C12c1ccccc1 (stereo unspecified)
- GI50 (DMS-273): > 100 µM (inactive)
- GI50 (LXFL 529): > 100 µM (inactive)
- GI50 (SNB-78): 68.7 µM (inactive)
- GI50 (XF498): > 100 µM (inactive)
- GI50 (DLD-1): > 100 µM (inactive)
- GI50 (HOP-18): > 100 µM (inactive)
- GI50 (DMS-114): > 100 µM (inactive)

Structure (SMILES): CN1CCC(CN2c3ccccc3Sc3ccccc32)CC1
- GI50 (DMS-273): 13.4 µM (inactive)
- GI50 (LXFL 529): 14.4 µM (inactive)
- GI50 (SNB-78): 15.8 µM (inactive)
- GI50 (M19-MEL): 13.4 µM (inactive)
- GI50 (XF498): 11.5 µM (inactive)
- GI50 (DLD-1): 14.7 µM (inactive)
- GI50 (HOP-18): 14.3 µM (inactive)
- GI50 (DMS-114): 15.9 µM (inactive)

Structure (SMILES): COc1cccc2c1C(=O)C1(O)CCCCC21 (stereo unspecified)
- GI50 (DMS-273): > 100 µM (inactive)
- GI50 (LXFL 529): > 100 µM (inactive)
- GI50 (SNB-78): > 100 µM (inactive)
- GI50 (M19-MEL): > 100 µM (inactive)
- GI50 (DLD-1): > 100 µM (inactive)
- GI50 (HOP-18): > 100 µM (inactive)
- GI50 (DMS-114): > 100 µM (inactive)

Structure (SMILES): CCSc1c2ccccc2c(-c2nc(F)nc(F)n2)n1CCc1ccccc1
- GI50 (DMS-273): > 100 µM (inactive)
- GI50 (LXFL 529): > 100 µM (inactive)
- GI50 (SNB-78): > 100 µM (inactive)
- GI50 (RXF 631): > 100 µM (inactive)
- GI50 (M19-MEL): > 100 µM (inactive)
- GI50 (XF498): > 100 µM (inactive)
- GI50 (DMS-114): > 100 µM (inactive)

Structure (SMILES): Cc1c(Cl)cccc1NC(=O)C(=O)C1C(=O)NC(=O)NC1=O
- GI50 (DMS-273): > 100 µM (inactive)
- GI50 (LXFL 529): > 100 µM (inactive)
- GI50 (SNB-78): > 100 µM (inactive)
- GI50 (M19-MEL): > 100 µM (inactive)
- GI50 (XF498): > 100 µM (inactive)
- GI50 (DLD-1): > 100 µM (inactive)
- GI50 (HOP-18): > 100 µM (inactive)

Structure (SMILES): COCCNC(=O)C1C(=O)N(CCOC)C(=O)/C1=N/N (stereo unspecified)
- GI50 (DMS-273): > 100 µM (inactive)
- GI50 (LXFL 529): > 100 µM (inactive)
- GI50 (SNB-78): > 100 µM (inactive)
- GI50 (M19-MEL): > 100 µM (inactive)
- GI50 (XF498): > 100 µM (inactive)
- GI50 (DLD-1): > 100 µM (inactive)

Structure (SMILES): BrC12c3ccccc3Sc3ccccc3C1(Br)c1ccccc12 (stereo unspecified)
- GI50 (DMS-273): 36 µM (inactive)
- GI50 (LXFL 529): 20.9 µM (inactive)
- GI50 (RXF 631): 25.9 µM (inactive)
- GI50 (M19-MEL): 35.2 µM (inactive)
- GI50 (DLD-1): 33 µM (inactive)
- GI50 (HOP-18): 51.5 µM (inactive)
- GI50 (DMS-114): 19.5 µM (inactive)

Structure (SMILES): CSc1ccc(NC(=O)C2c3[nH]c4ccccc4c3C3CCC(C(C)(C)C)CC3C2C(=O)O)cc1 (stereo unspecified)
- GI50 (DMS-273): 16.4 µM (inactive)
- GI50 (LXFL 529): 15.9 µM (inactive)
- GI50 (SNB-78): 17.2 µM (inactive)
- GI50 (M19-MEL): 21.1 µM (inactive)
- GI50 (XF498): 17.9 µM (inactive)
- GI50 (DLD-1): 12.6 µM (inactive)
- GI50 (HOP-18): 16.9 µM (inactive)
- GI50 (DMS-114): 19.8 µM (inactive)

Structure (SMILES): N/C(=N\N=C\c1c[nH]c2ccccc12)Nc1ccccc1
- GI50 (DMS-273): 0.506 µM (active)
- GI50 (LXFL 529): 0.504 µM (active)
- GI50 (SNB-78): 1.08 µM (active)
- GI50 (DLD-1): 0.474 µM (active)
- GI50 (HOP-18): 17.9 µM (inactive)
- GI50 (DMS-114): 0.357 µM (active)

Structure (SMILES): CCOc1ccc(NC(=O)C(=O)NO)cc1
- GI50 (DMS-273): > 100 µM (inactive)
- GI50 (LXFL 529): > 100 µM (inactive)
- GI50 (SNB-78): > 100 µM (inactive)
- GI50 (M19-MEL): > 100 µM (inactive)
- GI50 (DLD-1): > 100 µM (inactive)
- GI50 (HOP-18): > 100 µM (inactive)
- GI50 (DMS-114): > 100 µM (inactive)

Structure (SMILES): O=c1[nH]c(=O)n(C2OC(COP(=O)(O)OP(=O)(O)O)C(O)C2O)cc1F (stereo unspecified)
- GI50 (DMS-273): 0.456 µM (active)
- GI50 (LXFL 529): 0.555 µM (active)
- GI50 (SNB-78): 5.79 µM (inactive)
- GI50 (M19-MEL): 1.82 µM (inactive)
- GI50 (XF498): 1.69 µM (inactive)
- GI50 (DLD-1): 0.226 µM (active)
- GI50 (HOP-18): > 28 µM (inactive)
- GI50 (DMS-114): 28.5 µM (inactive)

Structure (SMILES): O=C1C[C@@H]2CCCC[C@@H]2C12SCCS2
- GI50 (DMS-273): > 100 µM (inactive)
- GI50 (LXFL 529): > 100 µM (inactive)
- GI50 (SNB-78): > 100 µM (inactive)
- GI50 (RXF 631): > 100 µM (inactive)
- GI50 (M19-MEL): > 100 µM (inactive)
- GI50 (XF498): 58.1 µM (inactive)
- GI50 (DLD-1): > 100 µM (inactive)
- GI50 (DMS-114): 89.1 µM (inactive)

Structure (SMILES): CC(=O)OC1CCCn2c1nc1c2C(=O)C(C)=C(N2CC2)C1=O (stereo unspecified)
- GI50 (DMS-273): 0.15 µM (active)
- GI50 (LXFL 529): 0.614 µM (active)
- GI50 (SNB-78): 0.454 µM (active)
- GI50 (M19-MEL): 0.392 µM (active)
- GI50 (XF498): 0.234 µM (active)
- GI50 (DLD-1): 0.583 µM (active)
- GI50 (HOP-18): 0.348 µM (active)
- GI50 (DMS-114): 0.771 µM (active)

Structure (SMILES): CC(C)=CCC/C(=C/CC/C(C)=C/CCc1ccoc1)C(=O)O
- GI50 (LXFL 529): > 100 µM (inactive)
- GI50 (SNB-78): > 100 µM (inactive)
- GI50 (M19-MEL): > 100 µM (inactive)
- GI50 (XF498): > 100 µM (inactive)
- GI50 (DLD-1): 84.5 µM (inactive)
- GI50 (DMS-114): > 100 µM (inactive)
